Measurements reported in article PMC5979327 (International Journal of Molecular Sciences, 2018).

Columns and labels:
[1] = tested on: histamine N-methyltransferase (HNMT); test: Post-mortem cerebral histamine N-methyltransferase activity of treated rats (radioenzymatic); format: in vivo, rat; conditions: s.c. 3 mg/kg/daily for 5 days, means ± SEM; for HMNT activity, CTX: cerebral cortex; for HMNT activity, HTH: hypothalamus
[2] = tested on: cerebral amine neurotransmitter concentrations; test: Post-mortem brain tissue concentration of histamine, noradrenaline, dopamine and serotonin; format: in vivo, rat; conditions: rats, 3 mg/kg s.c. for 5 days; for histamine concentration in the hypothalamus: not statistically significant
Experimental: (§1) Following the behavioral study, the rats were sacrificed, and their brains were collected. From each brain, the cerebral cortex and hypothalamus were quickly dissected according to the Glowinski and Iversen method. The samples were immediately frozen in liquid nitrogen and kept at −70 °C until assayed.
The amine concentrations were expressed as ng/g wet weight (HA) or nmol/g wet weight (DA, NA, 5-HT).

[3] = target: T1, guinea pig H3 receptor (jejunum) (Cavia porcellus, UniProt Q9JI35); test: H3 antagonistic activity against H3 agonist-induced inhibition of the electrically evoked contraction of the guinea pig jejunum; format: biochemical; conditions: vs (R)-α-methylhistamine, Schild plot, dihydrogenoxolate salts, read-out: pA2 (sem) (converted)
T1 construct: Whole jejunum segments (2 cm) were prepared and mounted between two platinum electrodes; from tissue; host or cells: guinea pig jejunum (small intestine)
T1 sequence (Q9JI35 whole entry): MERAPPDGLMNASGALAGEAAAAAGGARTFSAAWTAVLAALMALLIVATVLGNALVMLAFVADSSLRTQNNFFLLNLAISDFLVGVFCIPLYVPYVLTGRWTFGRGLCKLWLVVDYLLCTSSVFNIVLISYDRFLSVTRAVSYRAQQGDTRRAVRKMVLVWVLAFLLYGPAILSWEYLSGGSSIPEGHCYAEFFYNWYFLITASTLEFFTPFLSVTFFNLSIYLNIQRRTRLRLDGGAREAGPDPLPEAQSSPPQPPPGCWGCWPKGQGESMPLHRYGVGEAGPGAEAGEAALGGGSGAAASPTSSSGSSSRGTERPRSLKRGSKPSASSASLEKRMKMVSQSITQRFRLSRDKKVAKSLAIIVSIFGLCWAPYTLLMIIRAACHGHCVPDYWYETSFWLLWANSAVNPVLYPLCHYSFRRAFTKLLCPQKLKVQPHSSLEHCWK
Experimental: All newly synthesized compounds were converted into their dihydrogenoxolates salts and in vitro evaluated as H3 receptor antagonists against H3 agonist-induced inhibition of the electrically evoked contraction of the guinea pig jejunum.
In the first step, all the obtained compounds were tested for their H3 antagonistic effects in vitro, following standard methods, using the electrically contracting guinea pig jejunum.
Male guinea pigs weighing 300–400 g were sacrificed, and a portion of the small intestine, 20–50 cm proximal to the ileocaecal valve (jejunum), was removed and placed in Krebs buffer (composition (mM) NaCl 118; KCl 5.6; MgSO4 1.18; CaCl2 2.5; NaH2PO4 1.28; NaHCO3 25; glucose 5.5; indomethacin (1 × 10^ℒ6mol/L)). Whole jejunum segments (2 cm) were prepared and mounted between two platinum electrodes (4 mm apart) in 20 mL Krebs buffer, continuously gassed with 95% O2:5% CO2, and maintained at 37 °C. the contractions were recorded isotonically under 1.0 g tension with a Hugo Sachs Hebel–Messvorsatz (Tl-2)/HF-modem (Hugo Sachs Elektronik, Hugstetten, Germany) connected to a pen recorder. The equilibration lasted for one hour with washings every 10 min. The muscle segments were then stimulated at a maximum between 15 and 20 Volts, continuously at a frequency of 0.1 Hz for a duration of 0.5 msec, with rectangular wave electrical pulses, delivered by a Grass Stimulator S-88 (Grass Instruments Co., Quincy, MA, USA). […] The antagonists were preincubated for 20 min during the stimulation, before the preparation were challenged with (R)-α-methylhistamine. Antagonist potency was determined by the construction of a Schild plot, using three different concentrations of the antagonist. The potency of an antagonist is expressed by its pA2 value. The pA2 values were compared with those indicating the potency of thioperamide.

MAO-B = test: Post-mortem cerebral MAO-B activity of treated rats (radioassay); format: in vivo, rat; conditions: cerebral cortex, s.c. 3 mg/kg/daily for 5 days, means ± SEM
Experimental: as §1
(§2) Monoamine oxidase A and B (EC 1.4.3.4; MAO A and B) activities were estimated in cerebral homogenates with radioassays, using serotonin (fine conc. 200 μM) and β-phenylethylamine (fine conc. 20 μM), as well as specific inhibitors—clorgyline and deprenyl (0.3 μM each), respectively.
(§3) The enzyme activities are expressed as pmol/min/mg protein. Protein concentration was analyzed according to Lowry’s method.

[4] = target: T2, human histamine H3 receptor (hH3R) (Homo sapiens, UniProt Q9Y5N1); test: biochemical; format: binding
T2 construct: expressed in transfected cells; host or cells: HEK293T, transient PEI transfection with pcDNA3.1-hH3R; crude membranes
T2 sequence (Q9Y5N1 whole entry): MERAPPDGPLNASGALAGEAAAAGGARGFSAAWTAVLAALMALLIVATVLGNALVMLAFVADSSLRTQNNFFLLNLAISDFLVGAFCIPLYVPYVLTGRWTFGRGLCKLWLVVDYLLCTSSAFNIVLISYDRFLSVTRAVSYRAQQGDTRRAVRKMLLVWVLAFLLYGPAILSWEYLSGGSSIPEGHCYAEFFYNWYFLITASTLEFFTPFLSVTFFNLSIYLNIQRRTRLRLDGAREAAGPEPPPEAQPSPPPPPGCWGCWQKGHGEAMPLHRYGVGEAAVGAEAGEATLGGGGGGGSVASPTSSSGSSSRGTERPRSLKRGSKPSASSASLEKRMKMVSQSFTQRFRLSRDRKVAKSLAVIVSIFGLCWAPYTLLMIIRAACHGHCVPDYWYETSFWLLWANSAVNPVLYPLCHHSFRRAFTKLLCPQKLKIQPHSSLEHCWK

[5] = target: T3, rat histamine H3 receptor (rH3R) (Rattus norvegicus, UniProt Q9QYN8); test: [3H]-Nα-methylhistamine binding (saturation and displacement) to rat H3R in HEK-293T cell membranes
T3 construct: expressed in transfected cells; host or cells: HEK293T, transient PEI transfection with pcDNA3-rH3R; crude membranes
T3 sequence (Q9QYN8 whole entry): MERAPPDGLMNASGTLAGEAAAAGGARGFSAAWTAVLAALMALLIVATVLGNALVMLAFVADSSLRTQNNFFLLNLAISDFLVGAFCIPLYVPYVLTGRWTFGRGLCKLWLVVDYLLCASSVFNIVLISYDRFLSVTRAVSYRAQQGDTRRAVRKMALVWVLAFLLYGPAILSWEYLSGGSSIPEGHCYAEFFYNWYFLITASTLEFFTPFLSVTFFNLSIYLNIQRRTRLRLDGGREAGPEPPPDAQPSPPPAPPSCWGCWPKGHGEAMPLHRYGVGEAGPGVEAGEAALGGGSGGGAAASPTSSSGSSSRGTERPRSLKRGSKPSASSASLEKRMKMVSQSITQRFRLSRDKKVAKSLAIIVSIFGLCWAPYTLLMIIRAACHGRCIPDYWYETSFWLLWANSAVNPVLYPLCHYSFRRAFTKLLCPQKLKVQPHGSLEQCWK

MAO-A = test: Post-mortem cerebral MAO-A activity of treated rats (radioassay); format: in vivo, rat; conditions: cerebral cortex, s.c. 3 mg/kg/daily for 5 days, means ± SEM
Experimental: as §1, §2, §3

rats = test: Feeding behavior of rats after repeated subcutaneous administration; format: in vivo, rat; conditions: 3 mg/kg s.c. for 5 days; for amount of consumed food (food intake): versus pre-treatment period
Text: Finally, compound ADS-003 (1a) was subjected to an in vivo evaluation of its impact on brain neurotransmitter systems. This assessment concerned: • - The effects of the compound on the feeding behavior of rats after its repeated peripheral administration. […] The latter was accomplished by postmortem analyses of the brain tissues of the treated rats.
All animal experimental procedures were in accordance with EU directives and local ethical regulations. Male Wistar rats (260–300 g) were used. The animals were maintained under standard laboratory conditions (liquid and food available ad libitum, 12 h light–dark cycle). For feeding behavior examination, the rats were placed individually in metabolic cages (TecniplastGazzada, Buguggiate, Italy) and kept there throughout the entire test. Pharmacotherapy was preceded by a control period of 4 days aimed to determine the basal feed and water consumptions as well as urine excretion. The rats (n = 8 per group) were randomly given the H3R antagonists ADS-003 or Ciproxifan, the latter serving as a reference compound [40]. Control rats were treated with an equivalent volume of physiological saline. The compounds, dissolved in distilled water with DMSO (7%, v/v), were administered subcutaneously at a dose of 3 mg/kg of body mass for 5 consecutive days, always during the morning hours, following the record of feeding parameters. The dose of ADS-003 had been determined on the basis of a thorough characterization in vitro. The recorded volumes of consumed food are expressed in g or ml per 100 g of body weight or in ml per 24 h, respectively. The final results are given as means, with SEM calculated for each 24 h period, computed from a four-day (before treatment) or a five-day (treatment) monitoring

H1-receptor = target: T4, H1-receptor (Cavia porcellus, UniProt P31389); test: H1 antagonistic effects in vitro, guinea pig ileum, histamine as competing agonist; format: biochemical; conditions: read-out: pA2 (H1 antagonistic activity) (converted)
T4 construct: from tissue; host or cells: guinea pig ileum
T4 sequence (P31389 whole entry): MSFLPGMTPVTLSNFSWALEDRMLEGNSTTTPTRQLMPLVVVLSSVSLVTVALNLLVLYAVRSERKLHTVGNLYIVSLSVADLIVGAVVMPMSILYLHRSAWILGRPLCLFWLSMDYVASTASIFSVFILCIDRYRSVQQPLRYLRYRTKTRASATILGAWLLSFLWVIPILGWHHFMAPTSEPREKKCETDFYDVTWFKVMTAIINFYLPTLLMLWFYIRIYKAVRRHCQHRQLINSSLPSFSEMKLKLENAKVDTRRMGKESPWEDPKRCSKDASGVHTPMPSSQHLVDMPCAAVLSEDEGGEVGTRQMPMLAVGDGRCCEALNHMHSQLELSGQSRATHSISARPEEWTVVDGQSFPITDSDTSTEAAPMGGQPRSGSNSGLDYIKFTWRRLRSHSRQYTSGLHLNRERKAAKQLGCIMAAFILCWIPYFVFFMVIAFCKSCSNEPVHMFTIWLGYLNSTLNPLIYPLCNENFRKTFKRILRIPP
Experimental: The pA2 values were calculated according to Arunlakshana and Schild [34].

[6] = compared with Ciproxifan; cited from earlier work

CCCN(C)CCCCCOC1CCN(Cc2cc3ccccc3o2)CC1 [1a]
HMNT activity, CTX [1]: 44.41 ± 1.06 pmol/min/mg Protein
HMNT activity, HTH [1]: 41.09 ± 0.80 pmol/min/mg Protein
histamine levels in the cerebral cortex [2]: no changes
noradrenaline levels in the cerebral cortex [2]: enhanced
histamine concentration in the hypothalamus [2]: tendency to increase
Kb [3]: 5.37 nM
MAO-B activity, CTX (MAO-B): 1065 ± 48 pmol/min/mg Protein
Ki [4]: 251 nM
Ki [5]: 12.6 nM
MAO-A activity, CTX (MAO-A): 1536 ± 50 pmol/min/mg Protein
crossing of the blood–brain barrier (suggested by the food intake results) (rats): crosses the BBB
amount of consumed food (food intake) (rats): statistically significant reduction

CCCN(C)CCCCCOC1CCN(CCc2cc3ccccc3o2)CC1 [1b, 5-{{1-[2-(1-Benzofuran-2-yl)ethyl]piperidin-4-yl}oxy}-N-methyl-N-propylpentan-1-amine]
Kb [3]: 55 nM
Kb (H1-receptor): > 100000 nM

CCCN(C)CCCCCOC1CCN(CCCc2cc3ccccc3o2)CC1 [1c, 5-{{1-[3-(1-Benzofuran-2-yl)propyl]piperidin-4-yl}oxy}-N-methyl-N-propylpentan-1-amine]
Kb [3]: 77.6 nM

CCCN(C)CCCCCOC1CCN(CCc2ccccc2)CC1 [1e, N-Methyl-5-[(1-phenethylpiperidin-4-yl)oxy]-N-propylpentan-1-amine]
Kb [3]: 214 nM

CCCN(C)CCCCCOC1CCN(CCCc2ccccc2)CC1 [1f, N-Methyl-5-{[1-(3-phenylpropyl)piperidin-4-yl]oxy}-N-propylpentan-1-amine]
Kb [3]: 30.9 nM
Kb (H1-receptor): > 100000 nM

CCCN(C)CCCCCOCCCN(C)CCc1cc2ccccc2o1 [2b, 5-{3-{[2-(Benzofuran-2-yl)ethyl](methyl)amino}propoxy}-N-methyl-N-propylpentan-1-amine]
Kb [3]: 479 nM

CCCN(C)CCCCCOCCCN(C)CCCc1cc2ccccc2o1 [2c, 5-{3-{[3-(Benzofuran-2-yl)propyl](methyl)amino}propoxy}-N-methyl-N-propylpentan-1-amine]
Kb [3]: 427 nM

CCCN(C)CCCCCOCCCN(C)CCc1ccccc1 [2e, N-Methyl-5-{3-[methyl(phenethyl)amino]propoxy}-N-propylpentan-1-amine]
Kb [3]: 191 nM

CCCN(C)CCCCCOCCCN(C)CCCc1ccccc1 [2f, N-Methyl-5-(3-(methyl(3-phenylpropyl)amino)propoxy)-N-propylpentan-1-amine]
Kb [3]: 162 nM

O=C(c1ccc(OCCCc2cnc[nH]2)cc1)C1CC1 [Ciproxifan, reference compound]
HMNT activity, CTX [1]: 46.90 ± 3.59 pmol/min/mg Protein
HMNT activity, HTH [1]: 51.76 ± 5.67 pmol/min/mg Protein
histamine levels in the cerebral cortex [2]: no changes
noradrenaline levels in the cerebral cortex [2]: enhanced
histamine concentration in the hypothalamus [2]: tendency to increase
MAO-B activity, CTX (MAO-B): 1049 ± 56 pmol/min/mg Protein
MAO-A activity, CTX (MAO-A): 1654 ± 31 pmol/min/mg Protein
amount of consumed food (food intake) (rats): statistically significant reduction

S=C(NC1CCCCC1)N1CCC(c2cnc[nH]2)CC1 [Thioperamide]
bioavailability / brain penetration [6]: lower bioavailability

CNCCc1cnc[nH]1 [[^3H]-N^α-MH, [^3H]-N^α-methylhistamine, reference compound]
Kd ([4]; read-out: KD (saturation binding)): 0.9 ± 0.08 nM
Kd ([5]; rH3R, HEK-293T membranes): 2.72 ± 0.34 nM
